Here are results for three compounds from US9310660B2, “Organic compound and electrochromic element including the same” (CANON KABUSHIKI KAISHA, priority 2013, dated 2016).

A value given as a limit tells only on which side of the number the result lay.

A short description of data set [1]: Solubility in propylene carbonate. The format is physicochemical. Particulars: organic solvent or mixture. The protocol:
The solubilities of three compounds: Compound A-1 prepared in Example 1, Compound B-1 prepared in Example 2, and pyridinium salt precursor Ref-1 of Compound A-1 as a comparative example, in propylene carbonate, a solvent for an EC element, were measured.
Compound Ref-1 as a comparative example has a structure in which the pyridinium salt moiety of Compound A-1 is replaced by a non-ionized structure, a pyridyl group. The molecular structure is shown below.

Data set [2] is described as follows: Ultraviolet and visible absorption spectrum in chloroform. In kind it is physicochemical. Particulars: dissolved in chloroform, neutralized state. The procedure:
The resulting exemplified compound A-1 was dissolved in chloroform. The absorption spectrum of the solution was measured with an ultraviolet and visible spectrometer (V-560, manufactured by JASCO Corp.) and is shown in FIG. 2.
The resulting exemplified compound B-1 was dissolved in chloroform. The absorption spectrum of the solution was measured as in Example 1.

For orientation: solubility means the concentration that dissolves in the medium under given conditions. For the compound `Cc1cc(C)c(-c2cc3sc4cc(-c5cccc(-c6cc[n+](Cc7ccccc7)cc6)c5)sc4c3s2)c(C)c1` [Compound A-1], the solubility in data set [1] was at least 300 mM. In addition, the “maximum absorption peak λmax” value in data set [2] was determined as 355.5 nm. Consider `Cc1c(-c2cccc(-c3cc[n+](Cc4ccccc4)cc3)c2)sc(-c2cccc(-c3cc[n+](Cc4ccccc4)cc3)c2)c1C` [Compound B-1], for which the solubility in data set [1] was at least 75 mM. For the same compound, the “maximum absorption peak λmax” value in data set [2] was determined as 311.5 nm. With `Cc1cc(C)c(-c2cc3sc4cc(-c5cccc(-c6ccncc6)c5)sc4c3s2)c(C)c1` [Ref-1, reference compound], the solubility in data set [1] is at most 8 mM.
